{
  "source": "paper PMC9791135",
  "about": "“A penetratin-derived peptide reduces the membrane permeabilization and cell toxicity of α-synuclein oligomers” (The Journal of Biological Chemistry, 2022)",
  "key": {"[1]": {"target": "T1, αSOs (Homo sapiens, UniProt P37840)", "T1 construct": "made in house; host or cells: Escherichia coli BL21 (DE3); oligomers formed by shaking the monomer and isolated by SEC (Superose 6)", "assay": "Calcein release assay, αSOs together with peptides", "format": "biochemical", "conditions": "for Effect on vesicle permeabilization by αSOs: αSOs at calcein^50% (5.2 μg/ml)", "description": "αSOs show cytotoxic properties, which have been attributed to their membrane-disrupting ability ([69]). To examine the effect of peptides on membrane permeabilization by αSOs, we used a simple calcein release assay. αSOs, peptides, and aSO–peptide mixtures at 10^−6 to 10^−1 mg/ml peptide were added to calcein-loaded DOPG vesicle, and the extent of calcein release was monitored for 30 min by the increase in fluorescence as calcein leaks out upon membrane permeabilization, leading to dilution and the loss of self-quenching. The time-dependent calcein release data from DOPG vesicles ([70], [71]) in the presence of peptides, αSOs, and αSO–peptides are shown in Figs. S9 and S10. In order to allow easy comparison of all peptides, the calcein release versus concentration (peptides and αSOs) were plotted at the plateau point of release (Fig. 5, A–C). […] Figure 5D compares calcein release percentages of data represented in Figure 5, A and B at peptide concentrations between 0.001 and 0.1 mg/ml, where we see the largest extent of calcein release in general.\nCalcein-filled vesicles of DOPG were prepared as described before ([38]). Briefly, DOPG was dissolved in PBS to […], in the presence of calcein at self-quenching concentrations (70 mM) and subjected to 10 freeze–thaw cycles between liquid nitrogen and a 50 °C water bath. After 21 times extrusion through a 100 nm filter, free calcein was separated from vesicles with a PD-10 desalting column (GE Healthcare). Vesicles were stored at 4 °C and used for calcein release assays within 24 h.\nCalcein release was measured by mixing peptides and/or αSOs at a final concentration of 10^−6 to 10^−1 mg/ml and 5.2 μg/ml, respectively, in 148 μl with 2 μl of calcein vesicles, and were then loaded onto a 96-well plate (Nunc, Thermo Fischer Scientific) in triplicate. The plate was sealed with Crystal clear sealing tape (Hampton Research), and fluorescence was measured (excitation: 485 nm and emission: 520 nm) for 1 h at 37 °C every 2 min with a 2 s autoshake before each reading on a fluorescence plate reader (Tecan). Finally, 2 μl Triton X-100 (0.2% [v/v]) was added to lyse vesicles, and the maximal fluorescence signal was measured for 20 min under the same reading condition. Background fluorescence was subtracted, and the average signal of calcein release before addition of Triton X-100 (F), after treatment with Triton X-100 (Ft) and for the buffer control (F0) were determined, and calcein release percentage was calculated as follow (Equation 1):(1) CalceinRelease%(CR%)=(F−F0)/(Ft−F0)"}, "[2]": {"test_system": "SH-SY5Y cells", "assay": "MTT cell viability assay, substance alone", "conditions": "for Cell viability (MTT): SH-SY5Y cells, 35 μg/ml peptide alone, 24 h", "description": "The effect of the peptides on αSOs toxicity in SH-SY5Y cells using 3-(4, 5-dimethylthiazol-2-yl)-2,5-diphenyltetrazolium bromide (MTT) cell viability assay was also tested to complement our calcein data.\nWe used the MTT assay to measure cell viability after 24 h treatment with αSOs in the presence of peptides. SH-SY5Y cells were seeded in 96-well plates at a density of 5 × 10^4 cell/ml in Dulbecco's modified Eagle's medium supplemented with 10% FBS, 100 unit/ml penicillin, and […]. The cells were incubated in a humidified atmosphere incubator with 5% CO2 and 95% humidity at 37 °C for 24 h. The culture medium was then replaced with fresh medium containing 10 μM αSOs with peptides and incubated for another 24 h. Then the cell medium was replaced with a fresh medium containing 20% MTT (5 mg/ml), and the cells were incubated for an additional 4 h at 37 °C. Then 100 μl of dimethyl sulfoxide was added to dissolve formazan crystals by incubating for 30 min on a shaker at RT. Consequently, absorbance was measured by using a plate reader at 570 nm."}, "[3]": {"target": "T2, α-syn (Homo sapiens, UniProt P37840)", "T2 construct": "made in house; host or cells: Escherichia coli BL21 (DE3), plasmid pET11-D", "assay": "ThT fluorescence assay of unseeded α-syn fibrillation in the presence of peptides", "format": "biochemical", "conditions": "1 mg/ml α-syn, 0–0.5 mg/ml peptide, 48 h; for ThT signal end level: unseeded ThT, 37 °C, versus α-syn alone", "description": "To test the effects of these selected nine peptides on the aggregation of α-syn, we performed a thioflavin T (ThT) fluorescence assay in the presence of 1 mg/ml α-syn and 0 to 0.5 mg/ml peptide for 48 h (raw data in Fig. S3). Furthermore, the peptides alone were monitored for self-fibrillation. […] High concentrations of p222, p194, and p249 led to a decline in ThT fluorescence after reaching a plateau, possibly because of the formation of insoluble amorphous species. We also carried out seeding experiments by adding 5% sonicated preaggregated α-syn fibrils to the ThT assay.\nAbout 150 μl of 70 μM (1 mg/ml) α-syn, 40 μM ThT, and varying amounts of peptides (0, 0.06, 0.125, 0. 25, 0.375, and 0.5 mg/ml) were transferred in triplicates to a black COSTAR 96-well clear bottom plate (Nunc, Thermo Fisher Scientific), and including a 3 mm diameter glass bead (Glaswarenfabrik Karl Hecht GmbH & Co KG) per well to increase reproducibility ([100]). The plate was sealed with Crystal Clear sealing tape (Hampton Research) and incubated at 37 °C in a CLARIOstar Plus (BMG LABTECH) fluorescence plate reader. Fibrillation was carried out for ∼48 h with 300 rpm double orbital shaking between the readings for 372 s (excitation/emission: 448∕485 nm). Seeding experiments were performed using the same setting as for the fibrillation assay as described ([39]). Briefly, the experiments were done in triplicates in the presence of 0.05 mg/ml of α-syn fibril seeds (5% seeding) and 1 mg/ml of peptides in a solution of 1 mg/ml α-syn in 96-well plates."}},
  "note": "Where a SMILES comes first, the peptide text is derived from it.",
  "data": [
    {"compound": "CC(C)C[C@H](NC(=O)[C@H](Cc1c[nH]cn1)NC(=O)[C@H](CO)NC(=O)[C@H](CO)NC(=O)[C@H](C)NC(=O)[C@@H](N)CO)C(=O)N[C@@H](Cc1c[nH]cn1)C(=O)N[C@@H](Cc1c[nH]cn1)C(=O)NCC(=O)N[C@@H](Cc1c[nH]cn1)C(=O)N[C@@H](CO)C(=O)NCC(=O)NCC(=O)O", "note": "[p168] (H-SASSHLHHGHSGG-OH)", "values": [
      {"measurement": "Effect on vesicle permeabilization by αSOs", "setting": "[1]; peptide 10^−6 to 10^−1 mg/ml", "value": "failed to affect vesicle permeabilization by αSOs"},
      {"measurement": "Cell viability (MTT)", "setting": "[2]", "value": 94, "unit": "%"},
      {"measurement": "Effect on α-syn aggregation (ThT), in words", "setting": "[3]", "value": "did not change the lag phase duration"}
    ]},
    {"compound": "CC[C@H](C)[C@H](NC(=O)[C@H](Cc1c[nH]c2ccccc12)NC(=O)[C@H](CCCNC(=N)N)NC(=O)[C@H](Cc1c[nH]c2ccccc12)NC(=O)[C@H](CCCCN)NC(=O)[C@@H](NC(=O)[C@H](CCCCN)NC(=O)[C@H](CCC(N)=O)NC(=O)[C@@H](N)CC(N)=O)[C@@H](C)CC)C(=O)N[C@@H](CCC(N)=O)C(=O)N[C@@H](CCCNC(=N)N)C(=O)N[C@@H](Cc1ccccc1)C(=O)N[C@@H](CCCNC(=N)N)C(=O)N[C@@H](CCCCN)C(=O)N[C@@H](CCCCN)C(=O)N[C@@H](CCSC)C(=O)O", "note": "[p235] (H-NQKIKWRWIQRFRKKM-OH; N-terminus and C-terminus assumed)", "values": [
      {"measurement": "Toxicity to SH-SY5Y cells, in words", "setting": "[2]", "value": "slight toxicity"},
      {"measurement": "Effect on α-syn aggregation (ThT), in words", "setting": "[3]", "value": "slight aggregation-promoting effect"},
      {"measurement": "ThT signal end level", "setting": "[3]", "value": "↑↑"}
    ]},
    {"compound": "CC[C@H](C)[C@H](NC(=O)[C@H](Cc1ccccc1)NC(=O)[C@H](Cc1c[nH]c2ccccc12)NC(=O)[C@H](CCCNC(=N)N)NC(=O)[C@H](CC(N)=O)NC(=O)[C@@H](NC(=O)[C@H](CCC(N)=O)NC(=O)[C@H](CCCCN)NC(=O)[C@@H](N)CCSC)[C@@H](C)CC)C(=O)N[C@@H](CCCNC(=N)N)C(=O)N[C@@H](Cc1c[nH]c2ccccc12)C(=O)N[C@@H](CCC(N)=O)C(=O)N[C@@H](CCCCN)C(=O)N[C@@H](CCCCN)C(=O)N[C@@H](CCCNC(=N)N)C(=O)N[C@@H](CCCCN)C(=O)O", "note": "[p249] (H-MKQINRWFIRWQKKRK-OH; N-terminus and C-terminus assumed)", "values": [
      {"measurement": "Reduction of αSO-induced membrane permeability", "setting": "[1]; calcein-filled DOPG LUVs, peptide concentration not stated at the place", "value": 62, "unit": "%"},
      {"measurement": "Toxicity to SH-SY5Y cells, in words", "setting": "[2]", "value": "slight toxicity"},
      {"measurement": "Cell viability (MTT)", "setting": "[2]", "value": 80, "unit": "%"},
      {"measurement": "Effect on α-syn aggregation (ThT), in words", "setting": "[3]", "value": "slight aggregation-promoting effect"}
    ]},
    {"compound": "RQIKIWFQNRRFKWKK [p222, penetratin with modulated hydrophobicity]", "values": [
      {"measurement": "Effect on vesicle permeabilization by αSOs", "setting": "[1]; peptide 0.01 and 0.1 mg/ml", "value": "increased vesicle permeabilization by αSOs"},
      {"measurement": "Toxicity to SH-SY5Y cells, in words", "setting": "[2]", "value": "slight toxicity"},
      {"measurement": "Effect on α-syn aggregation (ThT), in words", "setting": "[3]", "value": "slight aggregation-promoting effect"},
      {"measurement": "ThT signal end level", "setting": "[3]", "value": "↑↑"}
    ]}
  ]
}
